From ChEMBL document CHEMBL1151410, “Plant anticancer agents. XXII. Isolation of a phorbol diester and its delta 5,6-7 beta-hydroperoxide derivative from Ostodes paniculata” (1983)
≈ marks a conversion by molar mass, not a printed value.

System: P388
Assay: Cytotoxicity against mouse P388 cells
Format: functional
Conditions: read-out: ED50 (the source's name)

## CCCCCCCC/C=C/C(=O)O[C@@H]1[C@@H](C)[C@@]2(O)[C@H]([C@@H]3C(C)(C)[C@]13OC(C)=O)[C@@H](OO)C(CO)=C[C@]1(O)C(=O)C(C)=C[C@@H]21 [OSTODIN]
  EC50: 0.055 µg/mL (≈ 0.0909 µM)
